Reference: patent US20250295109A1, “UNIVERSAL SYNERGIST FOR INSECT ATTRACTANTS” (North Carolina State University, priority 2022, published 2025)

Tests used:
Type in all cases: in vivo
Drosophila melanogaster = assay: dual choice free flight cage trapping assay with glass vial traps (water or balsamic vinegar); conditions: 24 hours
Description: FIG. 4 is a schematic drawing showing a design for a dual choice free flight cage trapping assay used herein to determine the effect of nonanal on trapping fruit flies (Drosophila melanogaster). A 13 centimeter (cm) by 19 cm by 9.5 cm cage with a mesh opening on the top is equipped with two glass 5.5 cm by 2.5 cm glass vial traps, each equipped with a lid fitted with a truncated pipette tip. At the bottom of each glass vial trap is either water or a fermentation attractant (i.e., balsamic vinegar). Inside each glass vial trap is another smaller glass vial containing either a solution of nonanal in dimethyl sulfoxide (DMSO) or a DMSO without nonanal. The attraction of starved Drosphila melanogaster males and females to balsamic vinegar (Bellino, Cento Fine Foods, Deptford, New Jersey, United States of America) with and without 1 μg nonanal was studied in a dual choice trapping assay. Nonanal was placed in a glass vial, separately from the balsamic vinegar, but adjacent to it. In all experiments, 20 3-4 day old, 24 hours starved flies (males and females) were given a choice between two traps. […] After 24 hours, flies in both traps were counted. Various amounts of nonanal were dissolved in DMSO, and then 10 μl of nonanal DMSO solution were placed in a separate glass vial (12×32 mm, Thermo Fisher Scientific. Waltham, Massachusetts, United States of America) adjacent to 0.4 ml of water in one trap. The other trap in the dual choice trapping assay contained 0.4 ml of water plus a separate vial containing 10 μl of DMSO. Twenty 3-4 day old, 24 hours starved flies (males and females) were given a choice between the two traps. After 24 hours, flies in both traps were counted. […] N=10. […] The attraction of starved Drosphila melanogaster males and females to balsamic vinegar to which various amounts of nonanal were added is shown in FIG. 6. Various amounts of nonanal were dissolved in DMSO, and then 10 μl of nonanal DMSO solution were placed in a separate glass vial adjacent to 0.4 ml of balsamic vinegar in one trap. […] After 24 hours, flies in both traps were counted. […]

[1] = system: male corn earworm (CEW, Helicoverpa zea); assay: field trapping of male CEW in Hartstack traps, nonanal dose study
Method: FIG. 10C is a graph showing the effectiveness of different doses of nonanal in field trapping of male corn earworm (CEW, Helicoverpa zea) using a commercial sex pheromone lure with different doses of nonanal. Effectiveness is measured as the number of male CEW captured per trap per day. The data for the two bars on the left are from traps with no commercial pheromone dispenser, while the data for the six bars on the right are from traps with the commercial pheromone dispenser in combination with the dispenser containing either paraffin oil alone (0 percent (%) nonanal) or a paraffin oil solution comprising 0.5% to 8% nonanal (weight to weight relative to the amount of the main component of the commercial sex pheromone).
Some of the traps also contained, adjacent to the glass vials, a lure comprising a rubber septum formulated with the commercial CEW sex pheromone. Assuming that the commercial pheromone lure contained about 2 mg of the major component (i.e., (Z)-11-hexadecenal), the solutions in the glass vials were prepared to contain various amounts (0%, 0.5%, 1%, 2%, 4%, or 8%) of nonanal on a weight to weight basis with the (Z)-11-hexadecenal.

[2] = system: male corn earworm (CEW, Helicoverpa zea); assay: field trapping of male CEW in Hartstack traps, nonanal and/or 1-hexanol
Description: FIG. 11 is a graph showing the results of a field trapping study of male com earworm (CEW, Helicoverpa zea) using traps containing a dispenser containing a solution of 0.5% nonanal and/or 0.5% 1-hexanol alone or also containing a dispenser for a commercial CEW sex pheromone lure. Effectiveness is reported as number of male CEW capture per day per trap.
To determine the effects of 1-hexanol and combinations of 1-hexanol and nonanal, Hartstack traps with or without the commercial CEW sex pheromone lure and with or without one or both of nonanal and 1-hexanol were placed in sorghum or corn fields. Nonanal and 1-hexanol, if present, were present at 0.5% on a weight to weight basis with the major component of the commercial pheromone lure.

CCCCCCCCC=O [nonanal]
attraction of flies to balsamic vinegar at highest amount of nonanal (Drosophila melanogaster; highest amount of nonanal (1000 μg) in DMSO adjacent to balsamic vinegar): interferes with attraction of flies to balsamic vinegar
flies trapped, nonanal trap versus trap without nonanal (Drosophila melanogaster; increasing amount of nonanal (e.g., 1 μg) in DMSO in vial adjacent to 0.4 ml balsamic vinegar, other trap balsamic vinegar and DMSO): more flies are trapped
flies trapped, nonanal trap versus trap without nonanal (Drosophila melanogaster; nonanal at various concentrations in DMSO (10 μl) in vial adjacent to 0.4 ml water, other trap water and DMSO only, starved males and females): does not trap any more flies than traps containing water and DMSO only
trap effectiveness with commercial CEW sex pheromone ([1]; e.g. 0.5% to 4% nonanal (w/w to (Z)-11-hexadecenal) added to trap with commercial CEW sex pheromone): increased the trap effectiveness
effectiveness in capturing male CEW, no commercial pheromone ([1]; traps containing only nonanal in paraffin oil, no commercial CEW sex pheromone lure): not effective in capturing male CEW
effectiveness in trapping male CEW, without commercial pheromone lure ([2]; 0.5% w/w level, without the commercial pheromone lure, sorghum or corn fields): not effective in trapping male CEW
effectiveness of commercial lure in trapping male CEW when combined ([2]; 0.5% w/w with major component of commercial pheromone lure, used in combination with the commercial lure): improved its effectiveness
